In patent publication US6413968B1, “Treatment of myasthenia gravis by cyclic nucleotide phosphodiesterase inhibition” (priority 2000, dated 2002):

Tested on: diplopia and ptosis
Experiment: Case report: patient with vertical diplopia and right ptosis treated orally
Assay type: in vivo, human
From the text: A person presented with a three-week history of vertical diplopia that was incomitant and right ptosis.

For `CN(C)C(=O)Oc1ccc[n+](C)c1` [Mestinon], the “relief of diplopia and ptosis” value (patient, three-week history of vertical diplopia and right ptosis, 60 mg three times daily) was “failed to relieve the diplopia or the ptosis”.

With `CCCc1nn(C)c2c(=O)[nH]c(-c3cc(S(=O)(=O)N4CCN(C)CC4)ccc3OCC)nc12` [Sildenafil] the “resolution of diplopia and ptosis” value (same patient, after Mestinon failure, 25 mg tab four times daily) was “immediate resolution of dipolopia and ptosis” and the “time to resolution of diplopia and ptosis” value (same patient, 25 mg tab four times daily) was at most 24 h.
